Measured values as given in US9670521B2, “Amino acid derivatives” (priority 2012, dated 2017).
Where two headings read alike, the source gives them in different places.

Target: T1, pyIRS/tRNA pair (Methanosarcina mazei, UniProt Q8PWY1)
T1 construct: expressed in transfected cells
Type: cell-based
Settings: for GFP expression / incorporation in the GFP reporter (in words): GFP assay, HEK293 cells expressing pyIRS/tRNApyl and GFPY40, nnAA at 2 mM; for Positive GFP / Positive GFP Assay: HEK293 cells stably expressing pyIRS (3H7), tRNApyl + GFPY40 reporter, nnAA at 2 mM for 2-3 days; for Positive GFP: visual inspection under the microscope; for Positive GFP Assay: Formula VI analogs
Source text: An in vitro cell based assay was developed to assess the compatibility of the pyIRS/tRNA pair and the pyrrolysine analogs of the present invention (nnAAs) by and the efficiency of nnAAs integration into a target protein. For this, HEK293 cells stably expressing pyIRS (3H7) were transiently transfected with plasmids for the expression of tRNApyl and a reporter construct encoding GFPY40 (containing amber codon in place of tyrosine at amino acid residue number 40 (where 1 is the initiator methionine)) using standard transfection protocols. Transfected cells were incubated with nnAAs at 2 mM for 2-3 days GFP production was analyzed qualitatively by visual inspection under the microscope. The GFP fluorescence was quantified by flow cytometry using an Accuri flow cytometer and the geometric mean of the fluorescent cells determined.
This cell based assay was used to determine whether the different nnAAs were suitable substrates for the pyIRS and allowed its translation into a target protein. Cells expressing the PyIRS/tRNApyl pair and containing a vector encoding the GFPY40 reporter gene were incubated in the presence of the nnAAs. nnAAs that are readily utilized by the PyIRS/tRNApyl pair support the translation of the nnAA into the amber site of GFP and allow read-through of the gene producing full length GFP (fluorescent protein). The fluorescence intensity of the cells depends on the efficiency of nnAA incorporation. Thus, nnAAs that are poorly utilized produce weakly fluorescent or non-fluorescing cells. […] Furthermore, the relative expression levels in each sample was compared to those generated by substrates known to be efficiently utilized by pyIRS.

T1 sequence (Q8PWY1 whole entry): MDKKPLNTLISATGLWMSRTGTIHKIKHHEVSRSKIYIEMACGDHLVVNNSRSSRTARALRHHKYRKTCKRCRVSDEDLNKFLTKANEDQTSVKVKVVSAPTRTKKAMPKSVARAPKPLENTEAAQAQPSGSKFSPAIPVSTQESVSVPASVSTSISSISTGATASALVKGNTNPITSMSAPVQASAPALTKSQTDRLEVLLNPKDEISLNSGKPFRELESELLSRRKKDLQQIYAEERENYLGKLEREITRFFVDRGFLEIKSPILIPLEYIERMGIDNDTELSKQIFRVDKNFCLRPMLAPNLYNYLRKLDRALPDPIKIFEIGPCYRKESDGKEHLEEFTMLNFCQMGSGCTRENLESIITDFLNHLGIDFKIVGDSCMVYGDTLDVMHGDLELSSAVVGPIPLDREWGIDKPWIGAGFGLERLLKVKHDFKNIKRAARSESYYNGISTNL

## [N-]=[N+]=NCCOC(=O)NCCCC[C@H](N)C(=O)O [Formula V.1, (2S)-2-amino-6-{[(2-azidoethoxy)carbonyl]amino}hexanoic acid]
  GFP expression / incorporation in the GFP reporter (in words): high levels of GFP expression
  Positive GFP: Yes

## C#CCOC(=O)NCCCC[C@H](N)C(=O)O [Formula V.2, (2S)-2-amino-6-{[(prop-2-yn-1-yloxy)carbonyl]amino}hexanoic acid]
  GFP expression / incorporation in the GFP reporter (in words): high levels of GFP expression
  Positive GFP: Yes

## C=CCOC(=O)NCCCC[C@H](N)C(=O)O [Formula V.3, (2S)-2-amino-6-{[(prop-2-en-1-yloxy)carbonyl]amino}hexanoic acid]
  GFP expression / incorporation in the GFP reporter (in words): high levels of GFP expression
  Positive GFP: Yes

## [N-]=[N+]=NCCNC(=O)OCCCC[C@H](N)C(=O)O [Formula VI.1, (2S)-2-amino-6-{[(2-azidoethyl)carbamoyl]oxy}hexanoic acid]
  GFP expression / incorporation in the GFP reporter (in words): high levels of GFP expression
  Positive GFP Assay: Yes
Listed as VI.1
  GFP expression / incorporation in the GFP reporter (in words): yield green cells

## C=CCNC(=O)OCCCC[C@H](N)C(=O)O [Formula VI.3, (2S)-2-amino-6-{[(prop-2-en-1-yl)carbamoyl]oxy}hexanoic acid]
  GFP expression / incorporation in the GFP reporter (in words): yield green cells
  Positive GFP Assay: Yes
